# Assay: Particle size D[90] of crystals before and after polymorph transformation
# Format: physicochemical
"particle size D[90] (Example 1, needle-shaped crystals formed in vessel B on adding PG solution to water/PG anti-solvent at 10 to 20° C., before recirculation)","particle size D[90] (Example 1, small granular crystals after about 24 hours of recirculation through inline homogenization apparatus)","particle size D[90] (Example 2, small granular crystals after about 30 hours of recirculation by pump through outlet and inlet of vessel B)","particle size D[90] (Example 3, N-1 seeded, overhead homogenizer in transient vessel at 55-65° C., continuous transfer, filtered and dried)",SMILES
greater than 160 μm,–,–,–,"COc1ccc(-n2nc(C(N)=O)c3c2C(=O)N(c2ccc(N4CCCCC4=O)cc2)CC3)cc1 [H2-2, 1-(4-methoxyphenyl)-7-oxo-6-(4-(2-oxopiperidin-1-yl)phenyl)-4,5,6,7-tetrahydro-1H-pyrazolo[3,4-c]pyridine-3-carboxamide]"
–,less than 20 μm,less than 20 μm,less than 20 μm,"COc1ccc(-n2nc(C(N)=O)c3c2C(=O)N(c2ccc(N4CCCCC4=O)cc2)CC3)cc1 [N-1, 1-(4-methoxyphenyl)-7-oxo-6-(4-(2-oxopiperidin-1-yl)phenyl)-4,5,6,7-tetrahydro-1H-pyrazolo[3,4-c]pyridine-3-carboxamide]"

# Reference: patent publication US20060160841A1, “Crystallization via high-shear transformation” (priority 2005, published 2006)
